Experiment [1] deals with T1, Endonuclease III-like protein 1 (Homo sapiens) (UniProt P78549).
T1 sequence (whole entry): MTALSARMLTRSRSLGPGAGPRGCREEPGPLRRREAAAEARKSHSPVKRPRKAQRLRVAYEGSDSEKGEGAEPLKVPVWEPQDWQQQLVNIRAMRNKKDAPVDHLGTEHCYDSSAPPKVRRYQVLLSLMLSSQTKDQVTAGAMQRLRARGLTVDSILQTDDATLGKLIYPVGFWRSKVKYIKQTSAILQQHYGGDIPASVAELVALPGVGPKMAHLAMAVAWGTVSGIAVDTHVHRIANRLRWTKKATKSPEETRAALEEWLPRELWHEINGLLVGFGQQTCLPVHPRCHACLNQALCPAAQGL
Particulars: Hit No.
Description: Inhibition of NTHL1 by quantifying inhibition of NTHL1-mediated cleavage and dissociation of quenched duplex DNA oligonucleotides, measured as fluorescence at 594 nm.

Experiment [2] concerns the target G/T mismatch-specific thymine DNA glycosylase (Homo sapiens) (UniProt Q13569). Particulars: Hit No.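 Note: human TDG cleavage of quenched duplex DNA oligonucleotides coupled to APE1, strand release read as fluorescence at 594 nm, inhibition of TDG activity.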
Description: Inhibition of TDG by quantifying inhibition of TDG-mediated cleavage and dissociation of quenched duplex DNA oligonucleotides, measured as fluorescence at 594 nm. To generate a functional strand incision and increase turn-over this assay is coupled to APE1.
Experiment [3] addresses Uracil-DNA glycosylase (Homo sapiens) (UniProt P13051). Particulars: Hit No.
Description: Inhibition of UNG by quantifying inhibition of UNG-mediated cleavage and dissociation of quenched duplex DNA oligonucleotides, measured as fluorescence at 594 nm. To generate a functional strand incision and increase turn-over this assay is coupled to APE1.
In experiment [4] the target is T2, Single-strand selective monofunctional uracil DNA glycosylase (Homo sapiens) (UniProt Q53HV7).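 Note: enzymatic SMUG1 assay coupled with APE1, reading fluorescence at 594 nm released when a quenched double-stranded DNA oligonucleotide substrate is cleaved and separated.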
T2 sequence (whole entry): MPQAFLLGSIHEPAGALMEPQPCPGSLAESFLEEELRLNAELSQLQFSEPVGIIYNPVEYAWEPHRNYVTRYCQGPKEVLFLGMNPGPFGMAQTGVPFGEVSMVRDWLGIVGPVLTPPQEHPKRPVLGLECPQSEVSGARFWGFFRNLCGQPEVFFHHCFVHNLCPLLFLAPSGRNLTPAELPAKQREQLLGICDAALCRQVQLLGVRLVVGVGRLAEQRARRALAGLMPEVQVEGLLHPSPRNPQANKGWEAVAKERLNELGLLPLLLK
The settings on record: Hit No.
Description: Inhibition of SMUG1 by quantifying inhibition of SMUG1-mediated cleavage and dissociation of quenched duplex DNA oligonucleotides, measured as fluorescence at 594 nm. To generate a functional strand incision and increase turn-over this assay is coupled to APE1.

In experiment [5] the target is Endonuclease 8-like 1 (Homo sapiens) (UniProt Q96FI4). Particulars: Compound Concentration 10.0 uM, Hit No.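 Note: fluorescence at 594 nm from quenched duplex DNA oligonucleotides released by NEIL1 cleavage and strand separation, reported as reduction of this enzyme activity.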
Chain of Endonuclease 8-like 1 (Homo sapiens) (Q96FI4 whole entry): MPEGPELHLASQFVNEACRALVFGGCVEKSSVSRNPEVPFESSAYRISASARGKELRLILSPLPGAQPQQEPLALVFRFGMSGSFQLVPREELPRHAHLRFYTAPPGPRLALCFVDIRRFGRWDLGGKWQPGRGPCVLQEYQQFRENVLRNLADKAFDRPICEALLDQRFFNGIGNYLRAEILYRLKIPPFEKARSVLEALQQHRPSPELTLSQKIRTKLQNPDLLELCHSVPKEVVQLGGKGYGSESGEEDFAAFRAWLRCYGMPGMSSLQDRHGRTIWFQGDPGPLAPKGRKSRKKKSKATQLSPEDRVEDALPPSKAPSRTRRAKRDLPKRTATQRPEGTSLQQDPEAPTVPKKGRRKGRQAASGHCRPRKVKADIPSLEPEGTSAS
Description: Inhibition of NEIL1 by quantifying inhibition of NEIL1-mediated cleavage and dissociation of quenched duplex DNA oligonucleotides, measured as fluorescence at 594 nm.
The target of experiment [6] is T3, Endonuclease 8-like 2 (Homo sapiens) (UniProt Q969S2).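 Note: fluorescence at 594 nm reports NEIL2 cutting and release of a quenched double-stranded DNA oligo substrate, reduced signal read as inhibition.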
T3 sequence (whole entry): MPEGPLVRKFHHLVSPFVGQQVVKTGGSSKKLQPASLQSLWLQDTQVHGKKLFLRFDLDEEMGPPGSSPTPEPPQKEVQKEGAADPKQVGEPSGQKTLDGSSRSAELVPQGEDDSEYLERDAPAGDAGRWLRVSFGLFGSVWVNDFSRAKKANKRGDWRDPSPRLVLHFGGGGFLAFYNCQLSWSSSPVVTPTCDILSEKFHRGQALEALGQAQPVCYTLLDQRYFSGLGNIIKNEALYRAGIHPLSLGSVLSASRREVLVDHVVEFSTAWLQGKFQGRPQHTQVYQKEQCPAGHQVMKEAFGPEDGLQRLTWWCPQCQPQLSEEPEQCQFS
Particulars: Compound Concentration 10.0 uM, Hit No.
Description: Inhibition of NEIL2 by quantifying inhibition of NEIL2-mediated cleavage and dissociation of quenched duplex DNA oligonucleotides, measured as fluorescence at 594 nm.

The target of experiment [7] is N-glycosylase/DNA lyase (Homo sapiens) (UniProt O15527). Particulars: Compound Concentration 10.0 uM, Hit No.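 Note: OGG1 cleavage of a quenched duplex DNA oligonucleotide, coupled to APE1 for strand incision, read as fluorescence at 594 nm.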
Chain of N-glycosylase/DNA lyase (Homo sapiens) (O15527 whole entry): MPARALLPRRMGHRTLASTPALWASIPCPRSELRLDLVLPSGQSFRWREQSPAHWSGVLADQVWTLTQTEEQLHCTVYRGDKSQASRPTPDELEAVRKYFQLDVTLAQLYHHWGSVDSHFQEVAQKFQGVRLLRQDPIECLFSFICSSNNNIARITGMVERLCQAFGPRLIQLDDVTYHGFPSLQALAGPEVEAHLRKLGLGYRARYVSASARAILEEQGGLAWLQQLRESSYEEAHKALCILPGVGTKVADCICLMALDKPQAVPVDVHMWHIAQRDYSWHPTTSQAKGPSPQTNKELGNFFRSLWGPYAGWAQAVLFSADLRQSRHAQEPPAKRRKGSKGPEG
Description: Inhibition of OGG1 by quantifying inhibition of OGG1-mediated cleavage and dissociation of quenched duplex DNA oligonucleotides, measured as fluorescence at 594 nm. To generate a functional strand incision and increase turn-over this assay is coupled to APE1.

This note sets out measurements from ChEMBL document CHEMBL5665443, “Enzyme Inhibitor Single Concentration assay results for EUbOPEN Chemogenomics Library” (2024).

One may read the inhibition as the change of the read-out against control, counted positive when it falls.

Chain of G/T mismatch-specific thymine DNA glycosylase (Homo sapiens) (Q13569 whole entry): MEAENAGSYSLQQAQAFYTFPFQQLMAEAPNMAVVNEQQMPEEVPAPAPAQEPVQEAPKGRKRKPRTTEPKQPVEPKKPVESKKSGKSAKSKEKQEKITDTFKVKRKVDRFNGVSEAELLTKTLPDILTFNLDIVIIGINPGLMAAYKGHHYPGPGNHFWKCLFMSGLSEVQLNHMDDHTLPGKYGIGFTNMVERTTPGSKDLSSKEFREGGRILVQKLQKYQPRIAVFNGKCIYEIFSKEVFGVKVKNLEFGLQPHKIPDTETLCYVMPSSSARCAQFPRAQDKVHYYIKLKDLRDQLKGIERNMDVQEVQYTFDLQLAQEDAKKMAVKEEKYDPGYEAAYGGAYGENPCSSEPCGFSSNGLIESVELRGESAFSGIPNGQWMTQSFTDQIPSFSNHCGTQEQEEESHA
Chain of Uracil-DNA glycosylase (Homo sapiens) (P13051 whole entry): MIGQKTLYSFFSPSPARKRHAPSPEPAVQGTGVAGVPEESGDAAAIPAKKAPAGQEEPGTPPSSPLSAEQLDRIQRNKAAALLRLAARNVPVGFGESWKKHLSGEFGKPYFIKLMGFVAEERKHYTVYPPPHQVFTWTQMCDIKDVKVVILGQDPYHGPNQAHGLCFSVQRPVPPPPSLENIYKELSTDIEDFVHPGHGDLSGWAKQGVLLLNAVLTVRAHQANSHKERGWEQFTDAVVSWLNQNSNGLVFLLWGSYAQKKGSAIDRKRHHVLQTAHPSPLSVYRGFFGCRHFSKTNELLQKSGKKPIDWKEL

For the compound `COc1cc(C)c(Sc2cnc(NC(=O)c3ccc(CNC(C)C(C)(C)C)cc3)s2)cc1C(=O)N1CCN(C(C)=O)CC1` (stereo not drawn), the inhibition was -3.4% in experiment [1] (Compound Concentration 10.0 uM); 37.6% in experiment [2] (Compound Concentration 10.0 uM); 4.76% in experiment [3] (Compound Concentration 10.0 uM); 19.5% in experiment [4] (Compound Concentration 10.0 uM); -0.787% in experiment [5].
Regarding `N=C(N)NCCC[C@H](NC(=O)C12CC3CC(CC(C3)C1)C2)C(=O)N[C@@H](Cc1ccccc1)C(N)=O`, the inhibition in experiment [1] (Compound Concentration 10.0 uM) was 13.8%; in experiment [6] it was -4.94%; in experiment [3] (Compound Concentration 10.0 uM) it was -7.87%; in experiment [4] (Compound Concentration 10.0 uM), -6%; in experiment [5], 4.9%.
As to `CC(C)(N)C(=O)N[C@H](COCc1ccccc1)C(=O)N1CCC2(CC1)CN(S(C)(=O)=O)c1ccccc12`, the inhibition in experiment [1] (Compound Concentration 10.0 uM) was -1.74%; in experiment [6], 7%; in experiment [2] (Compound Concentration 10.0 uM) it was 6.18%; in experiment [3] (Compound Concentration 10.0 uM), -9.48%; in experiment [4] (Compound Concentration 10.0 uM), -6.91%; in experiment [5], 7.36%.
With `CN(C(=O)c1ccccc1)c1cc(N(C)c2ccc3c(c2)CCc2ccc(C(=O)NCCN4CCOCC4)cc2C3=O)ccc1F`, the inhibition in experiment [1] (Compound Concentration 10.0 uM) is 3.6%; in experiment [6], -1.45%; in experiment [7], -2.17%; in experiment [5], -3.21%.
Regarding `N#Cc1cc2c(OCC(O)CN3CCN(C(c4ccccc4)c4ccccc4)CC3)cccc2[nH]1` (racemic), the inhibition is -4.67% in experiment [1] (Compound Concentration 10.0 uM); -1.98% in experiment [6]; -7.45% in experiment [2] (Compound Concentration 10.0 uM); -9.6% in experiment [3] (Compound Concentration 10.0 uM); -4.64% in experiment [7]; 7.06% in experiment [5].
Turning to `CN1CCN(c2nc3cc(C(F)(F)F)ccc3n3cccc23)CC1`, the inhibition in experiment [1] (Compound Concentration 10.0 uM) was 16.2%; in experiment [6], 16.2%; in experiment [3] (Compound Concentration 10.0 uM), 0.522%; in experiment [7] it was -6.12%; in experiment [5] it was -1.92%.
`CC[N+](CC)(CC)CCOc1ccc(/C=C/c2ccccc2)cc1`: the inhibition stood at 0.568% in experiment [1] (Compound Concentration 10.0 uM); 0.669% in experiment [6]; 1.13% in experiment [3] (Compound Concentration 10.0 uM); 8.74% in experiment [4] (Compound Concentration 10.0 uM); 3.86% in experiment [5].
As to `CCCSc1nc(N[C@@H]2C[C@H]2c2ccc(F)c(F)c2)c2nnn([C@@H]3C[C@H](OCCO)[C@@H](O)[C@H]3O)c2n1`, the inhibition is 11.4% in experiment [1] (Compound Concentration 10.0 uM); -6.53% in experiment [2] (Compound Concentration 10.0 uM); -5.37% in experiment [3] (Compound Concentration 10.0 uM); -6.84% in experiment [7]; -9.1% in experiment [5].
On to `CSCC[C@H](NC(=O)[C@H](Cc1ccc(O)cc1)NC(=O)[C@H](CCCCN)NC(=O)[C@@H](N)Cc1c[nH]c2ccccc12)C(=O)N[C@H](C(=O)N[C@H](CCSC)C(N)=O)C(C)C`, for which the inhibition was 21.2% in experiment [1] (Compound Concentration 10.0 uM), -4.17% in experiment [6], -1.7% in experiment [3] (Compound Concentration 10.0 uM) and 13.1% in experiment [5].
The corresponding values for `CCc1nn(CCCN2CCN(c3cccc(Cl)c3)CC2)c(=O)n1CCOc1ccccc1` are 7.79%, -4.48%, -5.52% and -3.02%.
For the compound `Cc1nc2ccc(Oc3ccc(F)cc3)cc2c(=O)n1C[C@H]1CCCN(C(C)C)C1`, the inhibition was -3.56% in experiment [1] (Compound Concentration 10.0 uM); -8.54% in experiment [2] (Compound Concentration 10.0 uM); -4.71% in experiment [3] (Compound Concentration 10.0 uM); -4.48% in experiment [4] (Compound Concentration 10.0 uM); 6.38% in experiment [5].
Regarding `CN(c1ncccc1CNc1ccnc(-c2cc3cc(Cl)ccc3[nH]2)n1)S(C)(=O)=O`, the inhibition in experiment [1] (Compound Concentration 10.0 uM) was -4.79%; in experiment [6], 1.85%; in experiment [2] (Compound Concentration 10.0 uM) it was 37.5%; in experiment [3] (Compound Concentration 10.0 uM), 1.54%; in experiment [4] (Compound Concentration 10.0 uM), 14.4%; in experiment [5] it was 8.2%.
With `CCOc1ccc(-n2c([C@@H](C)N(Cc3cccnc3)C(=O)Cc3ccc(F)c(C(F)(F)F)c3)nc3ncccc3c2=O)cc1`, the inhibition is 5.52% in experiment [1] (Compound Concentration 10.0 uM), -4.17% in experiment [6], -5.43% in experiment [3] (Compound Concentration 10.0 uM) and 6.83% in experiment [5].
Regarding `CN(CCN1CCC(OC(=O)Nc2ccccc2-c2ccccc2)CC1)C(=O)c1ccc(CN2CCC(C(N)=O)CC2)cc1`, the inhibition in experiment [1] (Compound Concentration 10.0 uM) was 15.8%; in experiment [6], -7.72%; in experiment [7], -7.57%; in experiment [5], 3.95%.
Consider `N#Cc1c(N)nc(SCC(N)=O)c(C#N)c1-c1ccc(OCC2CC2)cc1`, for which the inhibition in experiment [1] (Compound Concentration 10.0 uM) was 13.7%; in experiment [6], 6.25%; in experiment [7], 6.64%; in experiment [5], 5.43%.
Turning to `O=C(Nc1c(-c2cccs2)nc2ccc(Cl)cn12)c1ccc(Cl)cc1`, the inhibition was 13.8% in experiment [1] (Compound Concentration 10.0 uM); 6.02% in experiment [6]; -4.66% in experiment [3] (Compound Concentration 10.0 uM); -9.75% in experiment [7]; 0.454% in experiment [5].
`CCCC(=O)C1CCN(c2ncnc3c2CN(C(=O)c2ccc(-c4ccccc4)cc2)CC3)CC1`: the inhibition in experiment [1] (Compound Concentration 10.0 uM) was 12.1%; in experiment [6] it was -0.605%; in experiment [3] (Compound Concentration 10.0 uM) it was -3.39%; in experiment [7], -4.93%; in experiment [5], 0.75%.
As for `CCOc1cc2ncc(C#N)c(Nc3ccc(OCc4cccc(F)c4)c(Cl)c3)c2cc1NC(=O)/C=C/CN(C)C`, the inhibition is -5.49% in experiment [1] (Compound Concentration 1.0 uM), 25.8% in experiment [2] (Compound Concentration 1.0 uM), 3.4% in experiment [3] (Compound Concentration 1.0 uM) and 11.5% in experiment [4] (Compound Concentration 1.0 uM).
`Cc1ccccc1N1CCN(S(=O)(=O)C[C@]23CC[C@H](C[C@@H]2NC(=O)[C@@H](N)CCS(C)(=O)=O)C3(C)C)CC1`: the inhibition in experiment [1] (Compound Concentration 10.0 uM) was 20.2%; in experiment [6] it was -8.47%; in experiment [2] (Compound Concentration 10.0 uM), -7.58%; in experiment [3] (Compound Concentration 10.0 uM), -9.38%; in experiment [7] it was -1.3%; in experiment [5], 10.9%.
Turning to `c1ccc2oc(-c3csc(C4CCN(Cc5nc6ncccc6[nH]5)CC4)n3)cc2c1`, the inhibition in experiment [1] (Compound Concentration 10.0 uM) is -1.29%; in experiment [6], 1.3%; in experiment [2] (Compound Concentration 10.0 uM) it was 76.8%; in experiment [3] (Compound Concentration 10.0 uM) it was -7.49%; in experiment [7], 2.49%; in experiment [5], -4.83%.
Consider `CCCCCCCCCCCCC/C=C/[C@@H](O)[C@@H](N)COP(=O)(O)O`, for which the inhibition in experiment [1] (Compound Concentration 10.0 uM) was -7.6%; in experiment [6], 6.5%; in experiment [2] (Compound Concentration 10.0 uM) it was -7.17%; in experiment [3] (Compound Concentration 10.0 uM), -6.96%; in experiment [7], 2.2%; in experiment [5], 4.69%.
On to `CC(C)Oc1ccc(-c2nc(-c3cccc4c3CC[C@@H]4NCCO)no2)cc1C#N`, for which the inhibition in experiment [1] (Compound Concentration 10.0 uM) was 1.19%; in experiment [6] it was 5.51%; in experiment [2] (Compound Concentration 10.0 uM), -9.98%; in experiment [5], -0.352%.
As for `CCc1nn2c(C)cc(C)nc2c1Cc1ccc(-c2nnc(C3CCNCC3)o2)cc1`, the inhibition in experiment [1] (Compound Concentration 10.0 uM) was -9.8%; in experiment [6], 2.26%; in experiment [2] (Compound Concentration 10.0 uM) it was 1.84%; in experiment [7] it was -9.16%; in experiment [5], 6.02%.
`CC(F)(F)CN1CCOc2c(nn(-c3ccccc3Cl)c2-c2ccc(Cl)cc2)C1=O`: the inhibition in experiment [1] (Compound Concentration 10.0 uM) was 14.4%; in experiment [6] it was 4.76%; in experiment [2] (Compound Concentration 10.0 uM), -6.66%; in experiment [3] (Compound Concentration 10.0 uM), -4.73%; in experiment [7] it was 1.85%; in experiment [5] it was -3.02%.
As to `CN1CCN(c2nc(N)c3ccccc3n2)CC1`, the inhibition in experiment [1] (Compound Concentration 10.0 uM) was 17.1%; in experiment [6], 16%; in experiment [2] (Compound Concentration 10.0 uM) it was -3.58%; in experiment [3] (Compound Concentration 10.0 uM), -6.76%; in experiment [7], -6.52%; in experiment [5], 6.68%.
On to `COc1ccc(S(=O)(=O)N2C(=O)[C@@](c3ccccc3OC)(N3C[C@H](O)C[C@H]3C(=O)N(C)C)c3cc(Cl)ccc32)c(OC)c1`, for which the inhibition in experiment [1] (Compound Concentration 10.0 uM) was -0.258%; in experiment [6], -8.25%; in experiment [3] (Compound Concentration 10.0 uM), 1.21%; in experiment [5], 2.68%.
Turning to `CCCC(=O)C1(c2ccccc2)CCN(C(=O)[C@@H](Cc2ccc(OC)cc2)NC(=O)[C@@H](N)Cc2cncn2C)CC1`, the inhibition was -2.73% in experiment [1] (Compound Concentration 10.0 uM); -1.37% in experiment [6]; -7.56% in experiment [3] (Compound Concentration 10.0 uM); -8.78% in experiment [7]; 0.454% in experiment [5].
Consider `CC(C)CNc1nc(N2CCN(CC3CCCOC3)CC2)ncc1C(=O)NCc1ccccc1` (stereo not drawn), for which the inhibition is -1.08% in experiment [1] (Compound Concentration 10.0 uM), -0.0955% in experiment [6], -1.17% in experiment [3] (Compound Concentration 10.0 uM) and 2.23% in experiment [5].
